Read-outs that look alike come from different tables or passages of the source.
Key:
[1] = Effect on stomach emptying, [14C] glucose load (Example 25); type: in vivo, Rats; details: 0.33 mmoles/kg oral, 60 min after [14C] glucose load
Experimental: Rats were trained to consume a 3 hr 70% glucose meal from 8 a.m. to 11 a.m. daily. On the experimental day, compounds were administered orally by intubation 30 min before a [^14 C] glucose load was given also by intubation. […] Sixty minutes later the rats were killed by decapitation; blood and stomachs were collected on ice.
Data are expressed as follows: dpm×10^3 per ml of serum and dpm×10^3 per stomach.

[2] = Anorectic activities of stereoisomers, 3-day food consumption and body weight gain (Example 16); type: in vivo, Charles River female rats; details: 1.32 mmoles/kg oral, 3 days
Experimental: Charles River female rats (Charles River Breeding Laboratories, Wilmington, Mass.), weighing 196 to 210 g, were individually housed in wire-bottomed cages in a temperature-regulated (22° C.) light-controlled room (12 hr light, 6 a.m. to 6 p.m. and 12 hr dark, 6 p.m. to 6 a.m.). Animals were fasted 48 hr, then meal-fed a 70% glucose diet from 8 to 11 a.m. Following 5 to 12 days alimentation on the meal-feeding regimen, rats were dosed with the appropriate compounds orally by intubation 1/2 hr before the 3 hr meal for 3 days. The total food consumption and body weight gained during the 3 day period were determined. The control group consisted of 16 rats, while the experimental group consists of 8 rats.

[3] = Effect of stereoisomers on food consumption of meal-fed rats (Example 14); type: in vivo, Charles River female rats
Experimental: Animals were fasted 48 hr, then meal-fed the 70% glucose diet described by A. C. […] Following 5 to 12 days alimentation on the meal-feeding regimen, rats were dosed with the appropriate compounds orally by intubation 1/2 hr before the 3 hr meal. Food cups were weighed immediately after the meal. The control group consisted of 5 to 10 rats, while the experimental group consisted of 4 to 6 rats.

isolated rat hepatocytes = test: Fatty acid and cholesterol synthesis and CO2 production in isolated hepatocytes (Example 23); type: cell-based, Female Charles River rats; details: 2 mM, 60 min, 37° C.; for activity at 2000 µM: Rattus norvegicus, Hepatocyte, 1 h
Experimental: Female Charles River rats were fasted 48 hr, then meal-fed a 1% corn oil, 70% glucose diet for 7 to 14 days from 8 to 11 a.m. The isolated rat hepatocytes were prepared by perfusing the liver in situ. The hepatocytes were incubated in an oscillating water bath at 37° C. for 60 min. […] All incubations were done in triplicate and all experiments were repeated at least twice. […] The contents of the center well were transferred to scintillation counting fluid and ^14 CO2 content was determined. […] The media was then acidified, extracted with hexane, and the extract counted (to determine the rate of lipogenesis). The conversion of ^3 H2 O and [^14 C]alanine into fatty acids or sterols was determined in a PDS/3, Mark II liquid scintillation counting system.

[4] = Food intake in dogs, pyramiding oral doses (Examples 26 and 27); type: in vivo, beagle dogs
Experimental: Twelve beagle dogs of both sexes weighing 7.6-12.2 kg were used for this test. The test compounds were contained in gelatin capsules for oral administration to two dogs of each sex. The animals were weighed and food consumption calculated daily excluding weekends throughout the test period. Each animal received 800 grams of diet daily consisting of 400 grams of Wayne pellet dog food mixed with 400 ml distilled water. The animals received pyramiding oral doses of the test compound over the three week period. On Monday and Tuesday of the first week the animals were weighed and food consumption was recorded (control). […] Doses of 30, 100 and 300 mg/kg were administered on Monday, Wednesday and Friday respectively during the second week. A final dose of 1000 mg/kg was administered on Monday of the third week.
Food intake was determined by the procedure at pyramiding doses described in EXAMPLE 26.

[5] = test day 8, dose 100 mg/kg oral
[6] = test day 10, dose 300 mg/kg oral
[7] = test day 13, dose 1000 mg/kg oral

SMILES: O=C(O)C[C@@](O)(C(=O)O)[C@H](Cl)C(=O)O [(+)-erythro-Chlorocitric acid]
- Serum, % of control [1]: 88 % of control
- Stomach Contents, % of control [1]: 207 % of control
- 3-Day Body Weight Gain, % of initial body weight [2]: -0.7 % of initial body weight
- 3-Day Food Consumption, % of control [2]: 111 % of control
- Food Consumption, % of control ([3]; 0.66 mmoles/kg oral): 99 % of control
- Food Consumption, % of control ([3]; 2.63 mmoles/kg oral): 78 % of control

SMILES: O=C(O)C[C@](O)(C(=O)O)[C@H](Cl)C(=O)O [(+)-threo-Chlorocitric acid]
- Serum, % of control [1]: 60 % of control
- Stomach Contents, % of control [1]: 220 % of control
- 3-Day Body Weight Gain, % of initial body weight [2]: -1.7 % of initial body weight
- 3-Day Food Consumption, % of control [2]: 93 % of control
- CO2 Production, [14C]alanine converted (isolated rat hepatocytes; 2000 µM): 100 % of control
- Cholesterol Synthesis, [14C]alanine converted (isolated rat hepatocytes; 2000 µM): 88 % of control
- Fatty Acid Synthesis, 3H2O converted (isolated rat hepatocytes; 2000 µM): 94 % of control
- Fatty Acid Synthesis, [14C]alanine converted (isolated rat hepatocytes; 2000 µM): 97 % of control
- activity at 2000 µM (isolated rat hepatocytes; read-out: CO2 Production, [14C]alanine converted): 114%
- activity at 2000 µM (isolated rat hepatocytes; read-out: Cholesterol Synthesis, [14C]alanine converted): 69%
- activity at 2000 µM (isolated rat hepatocytes; read-out: Fatty Acid Synthesis, 3H2O converted): 93%
- activity at 2000 µM (isolated rat hepatocytes; read-out: Fatty Acid Synthesis, [14C]alanine converted): 102%
- Food Consumption, % of control ([3]; 0.66 mmoles/kg oral): 83 % of control
- Food Consumption, % of control ([3]; 2.63 mmoles/kg oral): 38 % of control
- Food Consumption ([4]; test day 1, dose 3 mg/kg oral): 430 ± 109 g
- Food Consumption, % of control ([4]; test day 1, dose 3 mg/kg oral): 70 % of control
- Food Consumption ([4]; test day 2, no dose): 502 ± 109 g
- Food Consumption, % of control ([4]; test day 2, no dose): 82 % of control
- Food Consumption ([4]; test day 3, dose 10 mg/kg oral): 367 ± 114 g
- Food Consumption, % of control ([4]; test day 3, dose 10 mg/kg oral): 60 % of control
- Food Consumption ([4]; test day 6, dose 30 mg/kg oral): 629 ± 64 g
- Food Consumption, % of control ([4]; test day 6, dose 30 mg/kg oral): 103 % of control
- Food Consumption ([4]; test day 7, no dose): 397 ± 87 g
- Food Consumption, % of control ([4]; test day 7, no dose): 65 % of control
- Food Consumption [4, 5]: 477 ± 75 g
- Food Consumption, % of control [4, 5]: 78 % of control
- Food Consumption ([4]; test day 9, no dose): 585 ± 69 g
- Food Consumption, % of control ([4]; test day 9, no dose): 96 % of control
- Food Consumption [4, 6]: 436 ± 60 g
- Food Consumption, % of control [4, 6]: 71 % of control
- Food Consumption [4, 7]: 433 ± 125 g
- Food Consumption, % of control [4, 7]: 71 % of control
- Food Consumption ([4]; test day 14, no dose): 518 ± 19 g
- Food Consumption, % of control ([4]; test day 14, no dose): 85 % of control
- Food Consumption ([4]; test day 15, no dose): 622 ± 69 g
- Food Consumption, % of control ([4]; test day 15, no dose): 102 % of control
- Food Consumption ([4]; test day 16, no dose): 564 ± 106 g
- Food Consumption, % of control ([4]; test day 16, no dose): 92 % of control
- Food Consumption ([4]; test day 17, no dose): 597 ± 36 g
- Food Consumption, % of control ([4]; test day 17, no dose): 98 % of control
- Food Consumption ([4]; test day 21, no dose): 578 ± 79 g
- Food Consumption, % of control ([4]; test day 21, no dose): 95 % of control
- Food Consumption ([4]; test day 22, no dose): 668 ± 57 g
- Food Consumption, % of control ([4]; test day 22, no dose): 110 % of control
- Food Consumption ([4]; test day 23, no dose): 516 ± 66 g
- Food Consumption, % of control ([4]; test day 23, no dose): 85 % of control
- Food Consumption ([4]; test day 24, no dose): 539 ± 39 g
- Food Consumption, % of control ([4]; test day 24, no dose): 88 % of control
- Food Consumption ([4]; test day 27, no dose): 479 ± 92 g
- Food Consumption, % of control ([4]; test day 27, no dose): 79 % of control
- Food Consumption ([4]; test day 28, no dose): 710 ± 91 g
- Food Consumption, % of control ([4]; test day 28, no dose): 116 % of control

SMILES: O=C(O)C[C@](O)(C(=O)O)[C@@H](Cl)C(=O)O [(-)-erythro-Chlorocitric acid]
- Serum, % of control [1]: 90 % of control
- Stomach Contents, % of control [1]: 169 % of control
- 3-Day Body Weight Gain, % of initial body weight [2]: -2.4 % of initial body weight
- 3-Day Food Consumption, % of control [2]: 86 % of control
- Food Consumption, % of control ([3]; 0.66 mmoles/kg oral): 85 % of control
- Food Consumption, % of control ([3]; 2.63 mmoles/kg oral): 53 % of control
